Here are results for 2 compounds from patent US12624040B2, “Compositions of substituted pyrazolopyrimidines and uses thereof” (KSQ Therapeutics, Inc., priority 2020, dated 2026).

A short description of data set [1]: Aqueous solubility / BCS classification. The conditions noted are these: for BCS class: low solubility/high permeability; for Solubility in water: physiological pHs (from pH 1.5-8.0). Format: physicochemical. An excerpt: Studies of these compounds indicate that these compounds are BCS class II compounds (low solubility/high permeability). […] Poor bioavailability is also often accompanied by highly variable patient blood levels and unpredictable dose/therapeutic effects due to erratic absorption of the drug by the patient. Accordingly, a need exists for compositions and methods to increase the solubility of these compounds.

On to `COc1ncnc(C2CC2)c1-c1ncc2cnn(Cc3ccc(-c4nc(C(F)(F)F)cn4C(C)C)cc3)c2n1` [Formula II, 6-(4-cyclopropyl-6-methoxypyrimidin-5-yl)-1-(4-(1-isopropyl-4-(trifluoromethyl)-1H-imidazol-2-yl)benzyl)-1H-pyrazolo[3,4-d]pyrimidine], for which, in data set [1], the BCS class entry is “BCS class II” and the Solubility in water entry is on record as “poorly soluble”. Further, the Bioavailability result in the data set “Bioavailability” is given as “low bioavailability”.

Consider `COc1ncnc(C2CC2)c1-c1ncc2cnn(Cc3ccc(-n4nc(C(F)(F)F)cc4C)cc3)c2n1` [Formula III, 6-(4-cyclopropyl-6-methoxypyrimidin-5-yl)-1-(4-(5-methyl-3-(trifluoromethyl)-1H-pyrazol-1-yl)benzyl)-1H-pyrazolo[3,4-d] pyrimidine], for which, in data set [1], the BCS class result was “BCS class II” and the Solubility in water result is “poorly soluble”. The Bioavailability entry in the data set “Bioavailability” was “low bioavailability”.
